Results: article PMC11579541, “In vitro, in vivo, and in silico approaches for evaluating the preclinical DMPK profiles of ammoxetine, a novel chiral serotonin and norepinephrine reuptake inhibitor” (Frontiers in Pharmacology, 2024)
Like-named read-outs stand apart in the source and are kept apart here.

Assay: PK studies in beagle dogs
Assay type: in vivo
Settings: for AUC(0-inf) / AUC(0-t) / MRT last / MRT inf / Tmax / half-life / Cmax / CL/F / Vd/F: beagle; for MRT last: read-out: MRT(0-t); for MRT inf: read-out: MRT(0-∞); for half-life: read-out: t1/2z (converted); for CL/F: read-out: CLz/F (converted); for Vd/F: read-out: Vz/F
Procedure: For the PK studies in rats and dogs, a total of 18 SD rats and 15 male beagle dogs were randomly divided into three groups, with six rats or five dogs per group, respectively. Prior to the experiments, all animals underwent a 12-h fasting period, while having free access to water. The animals were administered single oral doses of ammoxetine in three different dose levels: 8 mg/kg, 20 mg/kg, and 50 mg/kg for rats, and 2 mg/kg, 5 mg/kg, and 12.5 mg/kg for dogs, representing low, medium, and high doses. Serial blood samples were collected from the rats at 0, 2, 5, 15, and 30 min, as well as 1, 2, 4, 6, 8, 12, and 24 h post-dosing. For the dogs, blood samples were collected at 0, 5, 15, 30, and 45 min, as well as 1, 2, 4, 6, 8, 12, and 24 h post-dosing. Approximately 0.3 mL of blood was collected from the rats, while 2 mL of blood was collected from the dogs. The blood samples were collected into heparinized tubes. Following centrifugation, plasma samples were obtained and stored at −30°C until further analysis.
For the absolute bioavailability (F, %) study in dogs, the dogs initially received a single gastric gavage of a low dose (2 mg/kg) of ammoxetine, followed by a 1-week washout period. After the washout, the same dose of ammoxetine was administered intravenously (i.v.). To assess the effects of nonfasting on ammoxetine PK, dogs that received a medium dose (5 mg/kg) of ammoxetine via gastric gavage underwent a radical washout period of 1 week. Subsequently, they were administered the same dose of ammoxetine via gastric gavage under nonfasting conditions. To compare sex differences in ammoxetine PK, an additional five female beagle dogs were administered a medium dose (5 mg/kg) of ammoxetine via gastric gavage after a 12-h overnight fast. Blood samples (2 mL) were collected from these dogs into heparinized tubes at predose and at specified time points: 5, 15, 30, and 45 min, as well as 1, 2, 4, 6, 8, 12, and 24 h postdose. For the repeat-dose study, after completing blood collection during the initial administration, dogs receiving a single gastric gavage of a medium dose (5 mg/kg) of ammoxetine under fasting conditions were subsequently orally dosed with seven repeat doses of ammoxetine (5 mg/kg) every 12 h. Trough blood samples were collected before the fourth to last administration to ensure steady-state blood concentrations (C ss ) were achieved. Approximately 2 mL of blood was collected at specified time points after the last dose and transferred into heparinized tubes. All blood samples were then centrifuged at 4,000 r/min for 20 min to obtain plasma samples, which were stored at −30°C until analysis.
To determine the concentration of ammoxetine, 100 μL of L-phencynonate (IS, 50 ng/mL) and 300 μL of methanol were added to 100 μL of plasma samples from rats or dogs. After thorough vortexing, the mixture was centrifuged at 13,800×g for 10 min. The supernatants were then subjected to analysis using LC-MS-MS methods. PK parameters were calculated using DAS (Drug And Statistics for Windows) version 2.0, developed by the Shanghai University of Traditional Chinese Medicine, Shanghai, China. The F was determined by comparing the plasma area under the concentration-time curve (AUC) values after oral (p.o.) and intravenous (i.v.) administration of ammoxetine. F was calculated using the formula: F=AUCp.o./AUCi.v.×100% . Statistical analyses were performed using OriginPro 8.6 software. Paired sample or student’s t-test, as well as one-way ANOVA, were employed to compare the means of two or three groups, with a significance level set at p < 0.05.

[1] = beagle dogs, 2 mg/kg p.o. vs i.v.
[2] = beagle dogs, 5 mg/kg oral every 12 h, last time of multiple administrations
[3] = dog, plasma, po, 5 mg/kg, beagle dogs, 5 mg/kg oral every 12 h, last time of multiple administrations
[4] = female, dog, plasma, po, 5 mg/kg, female beagle dogs, 5 mg/kg oral, fasted
[5] = male, dog, plasma, iv, 2 mg/kg, beagle dogs, 2 mg/kg intravenous administration
[6] = male, dog, plasma, po, 2 mg/kg, beagle dogs, 2 mg/kg single oral dose
[7] = male, dog, plasma, po, 5 mg/kg, beagle dogs, 5 mg/kg oral every 12 h, last time of multiple administrations
[8] = male, dog, plasma, po, 5 mg/kg, beagle dogs, 5 mg/kg oral, fed (nonfasting)
[9] = male, dog, plasma, po, 5 mg/kg, male beagle dogs, 5 mg/kg single oral dose, fasted (first dose)
[10] = male, dog, plasma, po, 12.5 mg/kg, beagle dogs, 12.5 mg/kg single oral dose

CNCC[C@H](Oc1cccc2c1OCO2)c1cccs1 [ammoxetine]
F (absolute bioavailability) based on AUC(0-t) [1]: 41.76 ± 9.25%
F (absolute bioavailability) based on AUC(0-∞) [1]: 41.94 ± 9.31%
trough concentration (beagle dogs, 5 mg/kg oral every 12 h, before the 4th dose): 84.17 ± 50.58 ng/mL
trough concentration (beagle dogs, 5 mg/kg oral every 12 h, before the 5th dose): 64.21 ± 31.71 ng/mL
trough concentration (beagle dogs, 5 mg/kg oral every 12 h, before the 6th dose): 86.13 ± 43.95 ng/mL
trough concentration (beagle dogs, 5 mg/kg oral every 12 h, before the 7th dose): 95.71 ± 39.83 ng/mL
Cav [2]: 337.19 ± 112.27 ng/mL
Cmin [2]: 95.71 ± 39.83 ng/mL
DF (degree of fluctuation) [2]: 2.00 ± 0.45
AUC(0-inf) [3]: 5000 ng·h/mL
AUC(0-t) [3]: 4900 ng·h/mL
MRT last [3]: 5.76 ± 0.6 h
MRT inf [3]: 6.21 ± 0.73 h
Tmax (dog, plasma, po, 5 mg/kg, beagle dogs, 5 mg/kg oral every 12 h, last time of multiple administrations, read-out: Tmax): 1.1 ± 0.52 h
half-life [3]: 4.13 ± 0.85 h
AUC (dog, plasma, beagle dogs, 5 mg/kg oral every 12 h, last time of multiple administrations): 4050 ng·h/mL
AUC(0-inf) [4]: 1660 ng·h/mL
AUC(0-t) [4]: 1640 ng·h/mL
Cmax [4]: 476 ± 284 ng/mL
CL/F [4]: 71.5 mL/min/kg
MRT last [4]: 3.74 ± 0.78 h
MRT inf [4]: 3.88 ± 0.83 h
Tmax (female, dog, plasma, po, 5 mg/kg, female beagle dogs, 5 mg/kg oral, fasted, read-out: Tmax): 0.85 ± 0.22 h
Vd/F [4]: 20.9 ± 12.3 L/kg
half-life [4]: 3.45 ± 0.4 h
AUC(0-inf) [5]: 1010 ng·h/mL
AUC(0-t) [5]: 1010 ng·h/mL
Cmax [5]: 649 ± 119 ng/mL
MRT last [5]: 2.3 ± 0.29 h
MRT inf [5]: 2.33 ± 0.29 h
Tmax (male, dog, plasma, iv, 2 mg/kg, beagle dogs, 2 mg/kg intravenous administration, read-out: Tmax): 0.05 ± 0.03 h
half-life [5]: 2.72 ± 0.51 h
AUC(0-inf) [6]: 420 ± 108 ng·h/mL
AUC(0-t) [6]: 418 ± 108 ng·h/mL
Cmax [6]: 165 ± 49.5 ng/mL
CL/F [6]: 83.5 mL/min/kg
MRT last [6]: 2.94 ± 0.55 h
MRT inf [6]: 3.08 ± 0.69 h
Tmax (male, dog, plasma, po, 2 mg/kg, beagle dogs, 2 mg/kg single oral dose, read-out: Tmax): 0.75 ± 0.18 h
Vd/F [6]: 24.9 ± 13 L/kg
half-life [6]: 3.4 ± 1.28 h
Cmax [7]: 761 ± 254 ng/mL
CL/F [7]: 18.7 mL/min/kg
Vd/F [7]: 6.63 ± 2.77 L/kg
AUC(0-inf) [8]: 1960 ± 742 ng·h/mL
AUC(0-t) [8]: 1950 ± 738 ng·h/mL
Cmax [8]: 522 ± 234 ng/mL
CL/F [8]: 49.3 mL/min/kg
MRT last [8]: 4.14 ± 0.54 h
MRT inf [8]: 4.28 ± 0.59 h
Tmax (male, dog, plasma, po, 5 mg/kg, beagle dogs, 5 mg/kg oral, fed (nonfasting), read-out: Tmax): 0.8 ± 0.21 h
Vd/F [8]: 14 ± 6.8 L/kg
half-life [8]: 3.28 ± 0.28 h
AUC(0-inf) [9]: 1980 ± 533 ng·h/mL
AUC(0-t) [9]: 1960 ± 527 ng·h/mL
Cmax [9]: 524 ± 214 ng/mL
CL/F [9]: 45.2 mL/min/kg
MRT last [9]: 4.4 ± 0.65 h
MRT inf [9]: 4.7 ± 0.85 h
Tmax (male, dog, plasma, po, 5 mg/kg, male beagle dogs, 5 mg/kg single oral dose, fasted (first dose), read-out: Tmax): 0.8 ± 0.11 h
Vd/F [9]: 14.9 ± 5.08 L/kg
half-life [9]: 3.81 ± 0.52 h
AUC(0-inf) [10]: 8400 ng·h/mL
AUC(0-t) [10]: 7900 ng·h/mL
Cmax [10]: 1470 ng/mL
CL/F [10]: 25.8 mL/min/kg
MRT last [10]: 5.43 ± 1.18 h
MRT inf [10]: 7.53 ± 4.7 h
Tmax (male, dog, plasma, po, 12.5 mg/kg, beagle dogs, 12.5 mg/kg single oral dose, read-out: Tmax): 1.4 ± 0.6 h
Vd/F [10]: 13.9 ± 11 L/kg
half-life [10]: 6.2 ± 4.43 h
Tmax (male, dog, plasma, po, 12.5 mg/kg, beagle dogs, oral 2, 5 and 12.5 mg/kg, read-out: Tmax values, range): 0.75 to 1.4 h
bioavailability (male, dog, plasma, oral, beagle dogs, 2 mg/kg, approximate value, read-out: absolute bioavailability): ~42%
clearance (male, dog, plasma, beagle dogs, 2 mg/kg intravenous administration, total clearance, read-out: CLz (converted)): 34 mL/min/kg
Vd (male, dog, plasma, beagle dogs, 2 mg/kg intravenous administration, volume of distribution, read-out: Vz): 7.82 ± 1.2 L/kg
